Laboratory results: PubChem BioAssay AID1259407 (Chemical Carcinogenesis Research Information System (CCRIS), 2018)
Calls of active or inactive are those of the source. How the calls were made is not given here.

Test system: CCRIS mutagenicity, Ames/micronucleus/aberration tests
Experiment: CCRIS mutagenicity studies
[1] = Test System: AMES SALMONELLA TYPHIMURIUM, Strain/Indicator: TA100, Metabolic Activation: NONE, Method: STANDARD PLATE
[2] = Test System: AMES SALMONELLA TYPHIMURIUM, Strain/Indicator: TA100, Metabolic Activation: RAT, LIVER, S-9, AROCLOR 1254, Method: STANDARD PLATE

Nc1ccc2cc3ccc(N)cc3nc2c1
mutagenic call (Test System: AMES SALMONELLA TYPHIMURIUM, Strain/Indicator: TA98, Metabolic Activation: HAMSTER, LIVER, S-9, AROCLOR 1254, Method: STANDARD PLATE): active; positive
mutagenic call (Test System: AMES SALMONELLA TYPHIMURIUM, Strain/Indicator: TA98, Metabolic Activation: HAMSTER, LIVER, S-9, Method: STANDARD PLATE): active; positive
mutagenic call (Test System: AMES SALMONELLA TYPHIMURIUM, Strain/Indicator: TA98, Metabolic Activation: MOUSE, LIVER, S-9, AROCLOR 1254, Method: STANDARD PLATE): active; positive
mutagenic call (Test System: AMES SALMONELLA TYPHIMURIUM, Strain/Indicator: TA98, Metabolic Activation: MOUSE, LIVER, S-9, Method: STANDARD PLATE): active; positive
mutagenic call (Test System: AMES SALMONELLA TYPHIMURIUM, Strain/Indicator: TA98, Metabolic Activation: NONE, Method: FLUCTUATION (MICROTITER)): active; positive
mutagenic call (Test System: AMES SALMONELLA TYPHIMURIUM, Strain/Indicator: TA98, Metabolic Activation: RAT, LIVER, S-9, AROCLOR 1254, Method: STANDARD PLATE): active; positive
mutagenic call (Test System: AMES SALMONELLA TYPHIMURIUM, Strain/Indicator: TA98, Metabolic Activation: RAT, LIVER, S-9, Method: STANDARD PLATE): active; positive
mutagenic call [1]: inactive; negative
mutagenic call [2]: active; positive
mutagenic call (Test System: AMES SALMONELLA TYPHIMURIUM, Strain/Indicator: TA100, Metabolic Activation: RAT, LIVER, S-9, Method: STANDARD PLATE): inactive; negative
mutagenic call (Test System: AMES SALMONELLA TYPHIMURIUM, Strain/Indicator: TA1535, Metabolic Activation: MOUSE, LIVER, S-9, AROCLOR 1254, Method: STANDARD PLATE): inactive; negative
mutagenic call (Test System: AMES SALMONELLA TYPHIMURIUM, Strain/Indicator: TA1535, Metabolic Activation: NONE, Method: PREINCUBATION): inactive; negative
mutagenic call (Test System: AMES SALMONELLA TYPHIMURIUM, Strain/Indicator: TA1535, Metabolic Activation: NONE, Method: STANDARD PLATE): inactive; negative
mutagenic call (Test System: AMES SALMONELLA TYPHIMURIUM, Strain/Indicator: TA1535, Metabolic Activation: RAT, LIVER, S-9, AROCLOR 1254, Method: STANDARD PLATE): inactive; negative
mutagenic call (Test System: AMES SALMONELLA TYPHIMURIUM, Strain/Indicator: TA1535, Metabolic Activation: RAT, LIVER, S-9, TETRACHLOROBIPHENYL, Method: PREINCUBATION): inactive; negative
mutagenic call (Test System: AMES SALMONELLA TYPHIMURIUM, Strain/Indicator: TA1535, Metabolic Activation: RAT, LIVER, S-9, Method: STANDARD PLATE): inactive; negative
mutagenic call (Test System: AMES SALMONELLA TYPHIMURIUM, Strain/Indicator: TA1537, Metabolic Activation: HAMSTER, LIVER, S-9, AROCLOR 1254, Method: STANDARD PLATE): active; positive
mutagenic call (Test System: AMES SALMONELLA TYPHIMURIUM, Strain/Indicator: TA1537, Metabolic Activation: HAMSTER, LIVER, S-9, Method: STANDARD PLATE): active; positive
mutagenic call (Test System: AMES SALMONELLA TYPHIMURIUM, Strain/Indicator: TA1537, Metabolic Activation: MOUSE, LIVER, S-9, AROCLOR 1254, Method: STANDARD PLATE): active; positive
mutagenic call (Test System: AMES SALMONELLA TYPHIMURIUM, Strain/Indicator: TA1537, Metabolic Activation: MOUSE, LIVER, S-9, Method: STANDARD PLATE): active; positive
mutagenic call (Test System: AMES SALMONELLA TYPHIMURIUM, Strain/Indicator: TA1537, Metabolic Activation: NONE, Method: FLUCTUATION (MICROTITER)): active; positive
mutagenic call (Test System: AMES SALMONELLA TYPHIMURIUM, Strain/Indicator: TA1537, Metabolic Activation: NONE, Method: PREINCUBATION): active; positive
mutagenic call (Test System: AMES SALMONELLA TYPHIMURIUM, Strain/Indicator: TA1537, Metabolic Activation: RAT, LIVER, S-9, AROCLOR 1254, Method: STANDARD PLATE): active; positive
mutagenic call (Test System: AMES SALMONELLA TYPHIMURIUM, Strain/Indicator: TA1537, Metabolic Activation: RAT, LIVER, S-9, TETRACHLOROBIPHENYL, Method: PREINCUBATION): active; positive
mutagenic call (Test System: AMES SALMONELLA TYPHIMURIUM, Strain/Indicator: TA1537, Metabolic Activation: RAT, LIVER, S-9, Method: STANDARD PLATE): active; positive
mutagenic call (Test System: AMES SALMONELLA TYPHIMURIUM, Strain/Indicator: TA1538, Metabolic Activation: HAMSTER, LIVER, S-9, AROCLOR 1254, Method: STANDARD PLATE): active; positive
mutagenic call (Test System: AMES SALMONELLA TYPHIMURIUM, Strain/Indicator: TA1538, Metabolic Activation: HAMSTER, LIVER, S-9, Method: STANDARD PLATE): active; positive
mutagenic call (Test System: AMES SALMONELLA TYPHIMURIUM, Strain/Indicator: TA1538, Metabolic Activation: MOUSE, LIVER, S-9, AROCLOR 1254, Method: STANDARD PLATE): active; positive
mutagenic call (Test System: AMES SALMONELLA TYPHIMURIUM, Strain/Indicator: TA1538, Metabolic Activation: MOUSE, LIVER, S-9, Method: STANDARD PLATE): active; positive
mutagenic call (Test System: AMES SALMONELLA TYPHIMURIUM, Strain/Indicator: TA1538, Metabolic Activation: NONE, Method: PREINCUBATION): inactive; negative
mutagenic call (Test System: AMES SALMONELLA TYPHIMURIUM, Strain/Indicator: TA1538, Metabolic Activation: RAT, LIVER, S-9, AROCLOR 1254, Method: STANDARD PLATE): active; positive
mutagenic call (Test System: AMES SALMONELLA TYPHIMURIUM, Strain/Indicator: TA1538, Metabolic Activation: RAT, LIVER, S-9, TETRACHLOROBIPHENYL, Method: PREINCUBATION): active; positive
mutagenic call (Test System: AMES SALMONELLA TYPHIMURIUM, Strain/Indicator: TA1538, Metabolic Activation: RAT, LIVER, S-9, Method: STANDARD PLATE): active; positive
mutagenic call (Test System: AMES SALMONELLA TYPHIMURIUM, Strain/Indicator: TA1977, Metabolic Activation: NONE, Method: PREINCUBATION): active; positive
mutagenic call (Test System: AMES SALMONELLA TYPHIMURIUM, Strain/Indicator: TA1977, Metabolic Activation: RAT, LIVER, S-9, TETRACHLOROBIPHENYL, Method: PREINCUBATION): active; positive
mutagenic call (Test System: AMES SALMONELLA TYPHIMURIUM, Strain/Indicator: TA1978, Metabolic Activation: RAT, LIVER, S-9, TETRACHLOROBIPHENYL, Method: PREINCUBATION): active; positive
mutagenic call (Test System: AMES SALMONELLA TYPHIMURIUM, Strain/Indicator: TA7001, Metabolic Activation: NONE, Method: FLUCTUATION (MICROTITER)): inactive; negative
mutagenic call (Test System: AMES SALMONELLA TYPHIMURIUM, Strain/Indicator: TA7002, Metabolic Activation: NONE, Method: FLUCTUATION (MICROTITER)): inactive; negative
mutagenic call (Test System: AMES SALMONELLA TYPHIMURIUM, Strain/Indicator: TA7003, Metabolic Activation: NONE, Method: FLUCTUATION (MICROTITER)): inactive; negative
mutagenic call (Test System: AMES SALMONELLA TYPHIMURIUM, Strain/Indicator: TA7004, Metabolic Activation: NONE, Method: FLUCTUATION (MICROTITER)): inactive; negative
mutagenic call (Test System: AMES SALMONELLA TYPHIMURIUM, Strain/Indicator: TA7005, Metabolic Activation: NONE, Method: FLUCTUATION (MICROTITER)): active; positive
mutagenic call (Test System: AMES SALMONELLA TYPHIMURIUM, Strain/Indicator: TA7006, Metabolic Activation: NONE, Method: FLUCTUATION (MICROTITER)): inactive; negative
mutagenic call (Test System: CHINESE HAMSTER OVARY, Strain/Indicator: CHO-K1-BH4 (HGPRT)/6-THIOGUANINE, Metabolic Activation: NONE, Method: SUSPENSION/PLATE): active; positive
mutagenic call (Test System: CHINESE HAMSTER V-79, Strain/Indicator: V-79/6-THIOGUANINE, Metabolic Activation: NONE, Method: FLASK ASSAY): active; positive
mutagenic call (Test System: E. COLI, Strain/Indicator: WP2 UVRA, Metabolic Activation: HAMSTER, LIVER, S-9, AROCLOR 1254, Method: STANDARD PLATE): inactive; negative
mutagenic call (Test System: E. COLI, Strain/Indicator: WP2 UVRA, Metabolic Activation: HAMSTER, LIVER, S-9, Method: STANDARD PLATE): inactive; negative
mutagenic call (Test System: E. COLI, Strain/Indicator: WP2 UVRA, Metabolic Activation: MOUSE, LIVER, S-9, Method: STANDARD PLATE): inactive; negative
mutagenic call (Test System: E. COLI, Strain/Indicator: WP2 UVRA, Metabolic Activation: NONE, Method: STANDARD PLATE): inactive; negative
mutagenic call (Test System: MOUSE LYMPHOMA, Strain/Indicator: L5178Y (TK+/TK-), Metabolic Activation: NONE, Method: SUSPENSION/PLATE): active; positive

C=C(Cl)CSC(=S)N(CC)CC
mutagenic call [1]: inactive; negative
mutagenic call (Test System: AMES SALMONELLA TYPHIMURIUM, Strain/Indicator: TA100, Metabolic Activation: RAT, LIVER, CYTOSOL, AROCLOR 1254, Method: STANDARD PLATE): inactive; negative
mutagenic call (Test System: AMES SALMONELLA TYPHIMURIUM, Strain/Indicator: TA100, Metabolic Activation: RAT, LIVER, MICROSOMES, AROCLOR 1254, Method: STANDARD PLATE): inactive; negative
mutagenic call (Test System: AMES SALMONELLA TYPHIMURIUM, Strain/Indicator: TA100, Metabolic Activation: RAT, LIVER, MICROSOMES, CYTOSOL, AROCLOR 1254, Method: STANDARD PLATE): active; positive
mutagenic call [2]: active; positive
